Laboratory results reported in patent US20260116867A1, “PROTEOLYSIS TARGETING CHIMERAS FOR HUMAN PREGNANE X RECEPTOR AND FOR DEGRADATION OF GSPT1” (ST. JUDE CHILDREN'S RESEARCH HOSPITAL, priority 2022, published 2026).
One block for each compound: values may come before it.

Legend:
[1] = test system: SNU—C4 3xFLAG-PXR KI cells; assay: Cytotoxicity assay (CellTiter-Glo, 72 h); assay type: cell-based, human; conditions: SNU—C4 3xFLAG-PXR KI cells, 72 h, FIG. 7A; read-out: half maximal cytotoxic concentration (CC50)
Method: (§1) The indicated cells (2.5×10^3/well in 40 μL RPMI with 10% FBS) were plated in the 384-well plates, resulting in 0.5% DMSO and the indicated concentrations of chemicals. After 72 h compound treatment, the CellTiter-Glo Luminescent Cell Viability Assay (Promega) and an EnVision microplate reader were used to assess cytotoxicity. Wells containing DMSO alone or 10 μM staurosporine served as negative and positive controls, respectively. The percent cell viability for each well was calculated using equation 1: […]

[2] = test system: SNU—C4 3xFLAG-PXR KI cell lines stably expressing HA-tagged GSPT1^G575N; assay: Cytotoxicity assay in cells overexpressing degradation-resistant GSPT1 mutant; assay type: cell-based, human; conditions: FIG. 7B-C
Method: Complete information for all plasmids is included in Table 1 below. […] Lentiviruses for pCDH-GSPT1 or pCDH-GSPT1^G575N were generated in 293T cells using psPAX2 and pMD2.G packaging vectors. The packaging vectors were gifts from Dr. Didier Trono (Addgene plasmid #12259 and 12260).
as §1

PXR [3] = target: T1, PXR (Homo sapiens, UniProt O75469); assay: Western blot of endogenous 3xFLAG-PXR protein in SNU—C4 3xFLAG-PXR KI cells; assay type: cell-based; design: To assess SJPYT-195 activity against endogenous PXR, CRISPR-Cas9 was used; endogenous in cells; conditions: western blot, SNU—C4 3xFLAG-PXR KI cells
T1 sequence (O75469 1-434): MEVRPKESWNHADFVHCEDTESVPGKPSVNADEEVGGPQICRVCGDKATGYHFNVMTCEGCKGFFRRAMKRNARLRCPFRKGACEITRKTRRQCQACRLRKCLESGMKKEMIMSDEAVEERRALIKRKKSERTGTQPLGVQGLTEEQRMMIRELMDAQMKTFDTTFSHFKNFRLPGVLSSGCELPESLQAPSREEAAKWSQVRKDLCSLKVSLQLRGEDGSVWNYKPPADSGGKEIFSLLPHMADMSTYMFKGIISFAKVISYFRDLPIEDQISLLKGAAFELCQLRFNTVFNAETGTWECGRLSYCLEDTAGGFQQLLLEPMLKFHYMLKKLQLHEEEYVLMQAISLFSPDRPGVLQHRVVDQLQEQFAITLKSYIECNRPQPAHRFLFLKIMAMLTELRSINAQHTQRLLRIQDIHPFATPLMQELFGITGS
Method: The following day, DMSO or compounds were added to result in 0.5% DMSO and the indicated compound concentrations, and cells were incubated for the indicated time points. Cells were lysed and subjected to western blotting as above using antibodies against FLAG (Sigma-Aldrich, cat. #F3165, 1:2,000 dilution), GSPT1 (Abcam, cat. #ab126090, 1:4,000 dilution), and R-Actin (Cell Signaling Technology, cat. #4967, 1:2,000 dilution).

PXR [4] = target: T1, PXR; assay: cell-based hPXR antagonistic assay
PXR [5] = target: T1, PXR; assay: hPXR binding assay
PXR [6] = target: T1, PXR; assay: cell-based hPXR agonistic assay
HiBiT-FKBP12^F36V-PXR = target: T2, HiBiT-FKBP12^F36V-PXR (Homo sapiens, UniProt O75469+P62942, F37V); assay: HiBiT assay for degradation of overexpressed protein in HepG2 cells; assay type: cell-based; conditions: FIG. 2C
T2 construct: expressed in transfected cells; host or cells: HepG2 cells (transient, Lipofectamine 3000)
Method: HepG2 cells (5×10^6 cells/dish) were plated in tissue culture-treated 10 cm dishes in 10 mL EMEM with 10% FBS. The next day, cells were transfected with 5 μg pcDNA3-HiBiT-FKBP^F36V-2xHA-PXR and either 5 μg pcDNA3 vector or 5 μg pcDNA3-HA-CRBN using Lipofectamine 3000 (Thermo Fisher Scientific). After 24 h, cells were trypsinized, resuspended in assay media, and plated in white tissue culture-treated 384-well plates (1.5×10^4 cells/well in 25 μL medium). […] The plates were incubated for 24 h, and the Nano-Glo HiBiT Lytic Detection System (Promega) and an EnVision microplate reader were used to measure HiBiT signal. Results are reported as fold change relative to DMSO control cells.
To establish a method for discovery of PXR degraders in the absence of a known PXR-degrading control, the degradation tag (dTAG) system was used. With this method, a protein of interest (PXR) is fused to a cytosolic prolyl isomerase, FKBP12, with Phe36 mutated to Val (FKBP12^F36V) (FIG. 2A). A PROTAC molecule, dTAG-13 (FIG. 2B), is then used to induce degradation of the fusion protein through recruitment of the CUL4-RBX1-DDB1-CRBN (CRL4^CRBN) E3 ubiquitin ligase, without affecting the cellular FKBP12 protein. An HA tag was added for western blot detection, and a HiBiT tag was fused to the N-terminus to allow high-throughput plate-based quantification of HiBiT-FKBP12^F36V-PXR protein levels (FIG. 2A). […] This was also observed when the HA tag was detected by western blot (FIG. 2D). The HiBiT detection was more sensitive to protein level changes than western blot, and, importantly, overexpression of CRBN was required to achieve dTAG-13-mediated degradation of the overexpressed HiBiT-FKBP12^F36V-PXR protein.

T2 sequence (P62942+O75469 fused P62942:F37V): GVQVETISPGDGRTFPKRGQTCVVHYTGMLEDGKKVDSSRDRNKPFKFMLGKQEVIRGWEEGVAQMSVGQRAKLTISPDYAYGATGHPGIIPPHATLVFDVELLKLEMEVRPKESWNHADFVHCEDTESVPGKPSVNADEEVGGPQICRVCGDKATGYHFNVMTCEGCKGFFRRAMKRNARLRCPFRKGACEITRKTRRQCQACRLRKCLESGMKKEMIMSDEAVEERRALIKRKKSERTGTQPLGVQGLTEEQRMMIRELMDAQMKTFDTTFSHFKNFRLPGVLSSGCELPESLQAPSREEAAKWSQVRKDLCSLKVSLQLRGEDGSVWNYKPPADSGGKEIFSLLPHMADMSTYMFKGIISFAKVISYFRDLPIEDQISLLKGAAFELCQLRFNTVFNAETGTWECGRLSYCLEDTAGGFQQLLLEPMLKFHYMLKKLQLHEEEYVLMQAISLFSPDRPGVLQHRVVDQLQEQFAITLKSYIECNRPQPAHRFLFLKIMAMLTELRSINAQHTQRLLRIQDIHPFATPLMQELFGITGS
T2 sequence (Q96SW2 whole entry partner): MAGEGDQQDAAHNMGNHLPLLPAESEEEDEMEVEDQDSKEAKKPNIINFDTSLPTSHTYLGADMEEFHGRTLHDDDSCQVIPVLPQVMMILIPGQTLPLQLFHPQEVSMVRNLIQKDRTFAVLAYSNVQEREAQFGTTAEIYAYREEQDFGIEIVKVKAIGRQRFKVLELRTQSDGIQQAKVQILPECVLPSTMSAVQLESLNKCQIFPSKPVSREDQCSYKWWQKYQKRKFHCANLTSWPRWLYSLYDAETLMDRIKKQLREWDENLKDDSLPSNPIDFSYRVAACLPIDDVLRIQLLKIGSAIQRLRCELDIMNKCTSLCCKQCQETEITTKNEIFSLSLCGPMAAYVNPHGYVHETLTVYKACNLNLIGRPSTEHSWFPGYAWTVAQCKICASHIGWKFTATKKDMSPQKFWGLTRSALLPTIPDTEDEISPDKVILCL

PXR protein level (in words) (PXR [3]): also reduced PXR protein
SMILES: Cc1ccc(NC(=O)NCc2ccc3c(c2)CN(C2CCC(=O)NC2=O)C3=O)cc1Cl (centres unmarked) [CC-885, reference compound]
CC50 [1]: 3.3 ± 0.3 nM
cytotoxicity in cells overexpressing GSPT1^G575N [2]: partially resistant

SMILES: COc1ccc(OC)c(-n2nnc(C(=O)Nc3cc(C(C)(C)C)ccc3OCCCCOc3cccc4c3C(=O)N(C3CCC(=O)NC3=O)C4=O)c2C)c1 (centres unmarked) [Compound M12, N-(5-(tert-butyl)-2-(4-((2-(2,6-dioxopiperidin-3-yl)-1,3-dioxoisoindolin-4-yl)oxy)butoxy)phenyl)-1-(2,5-dimethoxyphenyl)-5-methyl-1H-1,2,3-triazole-4-carboxamide]
inhibition at 10 µM (PXR [4]; read-out: Antagonist (% inhibition at 10 μM)): 28%
IC50 (PXR [4]; read-out: Antagonist (IC50/μM)): 0.67 ± 0.26 µM
IC50 (PXR [5]): 0.032 ± 0.002 µM
inhibition at 10 µM (PXR [5]; read-out: Binding (% inhibition at 10 μM)): 56%
Agonist (% activation at 10 μM) (PXR [6]; 10 μM, rifampicin at 10 μM as 100% activation, DMSO (0.3%) as 0%): (33 ± 1)%
EC50 (PXR [6]; NA = no value within concentration range tested (highest 30 μM), read-out: Agonist (EC50/μM)): 0.27 ± 0.078 µM

HiBiT signal, CRBN co-overexpressed (HiBiT-FKBP12^F36V-PXR; HepG2 overexpressing HiBiT-FKBP12^F36V-PXR and CRBN): potently reduced HiBiT signal
HiBiT signal, without CRBN co-overexpression (HiBiT-FKBP12^F36V-PXR; HepG2 overexpressing HiBiT-FKBP12^F36V-PXR): only a slight reduction in HiBiT signal
SMILES: CC[C@H](C(=O)N1CCCC[C@H]1C(=O)O[C@H](CCc1ccc(OC)c(OC)c1)c1ccccc1OCC(=O)NCCCCCCOc1cccc2c1C(=O)N(C1CCC(=O)NC1=O)C2=O)c1cc(OC)c(OC)c(OC)c1 (some centres unmarked) [dTAG-13]
